Assay results as given in patent US8192962B2, “Processes for detecting toxic substances” (Daikin Industries, Ltd., priority 2001, dated 2012).

System: Metabolism protein genes
Experiment: DNA chip mRNA expression in yeast, metabolism protein genes (Table 7)
Type: cell-based, Saccharomyces cerevisiae S288C
Experimental: Yeast (Saccharomyces cerevisiae S288C (α SUC2mal mel gap2 CUP1)) were incubated at 25° C. on YPD medium (yeast extract 1%, polypepton 2%, glucose 2%). One of toxic chemical substances was added to the cells at logarithmic growth phase, and the cells were further incubated for two hours. Cells were cultured without any chemical substance in the same condition, and were used as control. Concentrations of the chemical substances were defined to inhibit the growth of the yeast but not lead to death.
After completion of the incubation, the culture was centrifuged to collect the cells. To the cells, sodium acetate buffer (50 mM sodium acetate, 10 mM EDTA, 1% SDS) was added, and the mixture was shaken at 65° C. for five minutes, followed by returning to room temperature, and obtaining the supernatant, of which the procedures were repeated two times. To the supernatant, ½ amount of a solution of phenol/chloroform was added, and the mixture was centrifuged to give a supernatant, which was added with an equal amount of chloroform, and the mixture was centrifuged to give a supernatant. To the supernatant, an equal amount of isopropanol containing 0.3 M sodium acetate was added, and the mixture was allowed to stand at room temperature for 30 minutes, after which the mixture was centrifuged to give a sediment of the whole RNAs. Seventy % ethanol was added to the sediment, and the mixture was again centrifuged to give a sediment, which was then dried and dissolved in water. mRNA was isolated from the whole RNAs as followings. In view of the fact that a poly A chain is attached to the 3′ terminus of mRNA, a polynucleotide having a poly T structure which was immobilized on the surface of latex beads was used to trap the mRNA, and then the mRNA was washed and eluted with spine column (Oligotex-dT30<Super>mRNA Purification Kit, Takara). Reverse transcription of the mRNA was conducted with a reverse transcriptase (Super Script II Reverse Transcriptase; catalogue No. 18064-014, GibcoBRL) using fluorescence-labeled nucleotides to give cDNAs that were introduced with Cy3-dUTP or Cy5-dUTP during the reverse transcription.
The labeled cDNAs were dissolved in TE buffer (10mM Tris-HCl/1 mM EDTA, pH8.0), and the solution was dropped on the DNA chip containing the whole genes of yeast (DNA Chip Research Inc. Japan) so that the cDNAs were hybridized on the DNA chip at 65° C. for over 12 hours. The fluoresces intensity of the DNA chip was read with a scanner, and the ratio relative to the fluorescence intensity resulting from the absence of chemical substance was estimated as the following, which is shown in Tables 1 to 9: […]

CN(C)C(=S)SSC(=S)N(C)C [(10), Tetramethylthiuram disulfide]
level of expressed mRNA in the presence/in the absence of chemical substance (yeast gene YJR143C): 0.3
The level of expressed mRNA in the presence of chemical substance/The level of expressed mRNA in the absence of chemical substance (yeast gene YJR148W): 3.0
The level of expressed mRNA in the presence of chemical substance/The level of expressed mRNA in the absence of chemical substance (yeast gene YJR155W): 18.8
The level of expressed mRNA in the presence of chemical substance/The level of expressed mRNA in the absence of chemical substance (yeast gene YKL001C): 3.4
The level of expressed mRNA in the presence of chemical substance/The level of expressed mRNA in the absence of chemical substance (yeast gene YKL035W): 1.2
level of expressed mRNA in the presence/in the absence of chemical substance (yeast gene YKL060C): 0.8
The level of expressed mRNA in the presence of chemical substance/The level of expressed mRNA in the absence of chemical substance (yeast gene YKL091C): 3.2
The level of expressed mRNA in the presence of chemical substance/The level of expressed mRNA in the absence of chemical substance (yeast gene YKL104C): 1.8
level of expressed mRNA in the presence/in the absence of chemical substance (yeast gene YKL148C): 1.7
The level of expressed mRNA in the presence of chemical substance/The level of expressed mRNA in the absence of chemical substance (yeast gene YKL152C): 1.5
level of expressed mRNA in the presence/in the absence of chemical substance (yeast gene YKL157W): 1.9
The level of expressed mRNA in the presence of chemical substance/The level of expressed mRNA in the absence of chemical substance (yeast gene YKL213C): 2.1
The level of expressed mRNA in the presence of chemical substance/The level of expressed mRNA in the absence of chemical substance (yeast gene YKL215C): 1.9
level of expressed mRNA in the presence/in the absence of chemical substance (yeast gene YKR034W): 0.6
The level of expressed mRNA in the presence of chemical substance/The level of expressed mRNA in the absence of chemical substance (yeast gene YKR039W): 2.0
The level of expressed mRNA in the presence of chemical substance/The level of expressed mRNA in the absence of chemical substance (yeast gene YLL058W): 3.6
level of expressed mRNA in the presence/in the absence of chemical substance (yeast gene YLR006C): 1.1
level of expressed mRNA in the presence/in the absence of chemical substance (yeast gene YLR044C): 1.2
level of expressed mRNA in the presence/in the absence of chemical substance (yeast gene YLR056W): 0.5
level of expressed mRNA in the presence/in the absence of chemical substance (yeast gene YLR058C): 0.1
level of expressed mRNA in the presence/in the absence of chemical substance (yeast gene YLR081W): 2.2
level of expressed mRNA in the presence/in the absence of chemical substance (yeast gene YLR089C): 0.8
The level of expressed mRNA in the presence of chemical substance/The level of expressed mRNA in the absence of chemical substance (yeast gene YLR180W): 0.9
The level of expressed mRNA in the presence of chemical substance/The level of expressed mRNA in the absence of chemical substance (yeast gene YLR273C): 2.4
level of expressed mRNA in the presence/in the absence of chemical substance (yeast gene YLR284C): 0.9
The level of expressed mRNA in the presence of chemical substance/The level of expressed mRNA in the absence of chemical substance (yeast gene YLR299W): 2.3
The level of expressed mRNA in the presence of chemical substance/The level of expressed mRNA in the absence of chemical substance (yeast gene YLR300W): 0.5
level of expressed mRNA in the presence/in the absence of chemical substance (yeast gene YLR304C): 2.2
The level of expressed mRNA in the presence of chemical substance/The level of expressed mRNA in the absence of chemical substance (yeast gene YLR307W): 0.7
The level of expressed mRNA in the presence of chemical substance/The level of expressed mRNA in the absence of chemical substance (yeast gene YLR348C): 1.3
level of expressed mRNA in the presence/in the absence of chemical substance (yeast gene YLR354C): 0.9
level of expressed mRNA in the presence/in the absence of chemical substance (yeast gene YLR372W): 0.1
level of expressed mRNA in the presence/in the absence of chemical substance (yeast gene YML022W): 0.6
The level of expressed mRNA in the presence of chemical substance/The level of expressed mRNA in the absence of chemical substance (yeast gene YML054C): 1.8
The level of expressed mRNA in the presence of chemical substance/The level of expressed mRNA in the absence of chemical substance (yeast gene YML070W): 3.9
The level of expressed mRNA in the presence of chemical substance/The level of expressed mRNA in the absence of chemical substance (yeast gene YML100W): 1.4
The level of expressed mRNA in the presence of chemical substance/The level of expressed mRNA in the absence of chemical substance (yeast gene YMR008C): 0.6
level of expressed mRNA in the presence/in the absence of chemical substance (yeast gene YMR011W): 0.7
level of expressed mRNA in the presence/in the absence of chemical substance (yeast gene YMR015C): 0.3
The level of expressed mRNA in the presence of chemical substance/The level of expressed mRNA in the absence of chemical substance (yeast gene YMR020W): 2.9
level of expressed mRNA in the presence/in the absence of chemical substance (yeast gene YMR083W): 1.1
The level of expressed mRNA in the presence of chemical substance/The level of expressed mRNA in the absence of chemical substance (yeast gene YMR105C): 2.9
The level of expressed mRNA in the presence of chemical substance/The level of expressed mRNA in the absence of chemical substance (yeast gene YMR189W): 0.9
level of expressed mRNA in the presence/in the absence of chemical substance (yeast gene YMR205C): 0.8
level of expressed mRNA in the presence/in the absence of chemical substance (yeast gene YMR261C): 1.3
The level of expressed mRNA in the presence of chemical substance/The level of expressed mRNA in the absence of chemical substance (yeast gene YMR271C): 4.4
The level of expressed mRNA in the presence of chemical substance/The level of expressed mRNA in the absence of chemical substance (yeast gene YMR296C): 0.6
level of expressed mRNA in the presence/in the absence of chemical substance (yeast gene YMR323W): 1.3
The level of expressed mRNA in the presence of chemical substance/The level of expressed mRNA in the absence of chemical substance (yeast gene YNL012W): 3.2
level of expressed mRNA in the presence/in the absence of chemical substance (yeast gene YNL025C): 1.8
